For one compound, Permeability results are on record in paper PMC10046020, “In Silico Screening and Optimization of Cell-Penetrating Peptides Using Deep Learning Methods” (Biomolecules, 2023).

Peptide text beside a SMILES is read from it. * marks the point of attachment. FITC = O=C1OC2(c3ccc(O)cc3Oc3cc(O)ccc32)c2ccc(NC(=S)*)cc21; Ahx = NCCCCCC(=O)O

The data set has as its system MCF-7 cells.

Experimental: MCF-7 cells are maintained in Roswell Park Memorial Institute 1640 medium supplemented with 10% fetal bovine serum and 1% antibiotics at 37 °C in an atmosphere of 5% CO2 in the air. Cells are cultured in a 35-mm plate at a density of 5 × 10^5 cells in growth medium, incubated overnight, and then treated with 1 µM FITC-conjugated peptide for 1 h at 37 °C in a CO2 incubator.
The cultured cells are harvested, washed twice with phosphate-buffered saline (PBS), treated with trypsin for 5 min, washed with PBS again, and then resuspended in 1 mL of 2% paraformaldehyde in PBS. Cells were then transferred to a fluorescence-activated cell sorting tube and analyzed by flow cytometry using a Novocyte flow cytometer (Agilent, Santa Clara, CA, USA).

In turn, `CSCC[C@H](NC(=O)CCCCCNC(=S)Nc1ccc2c(c1)C(=O)OC21c2ccc(O)cc2Oc2cc(O)ccc21)C(=O)N[C@@H](CC(C)C)C(=O)N1CCC[C@H]1C(=O)NCC(=O)N[C@@H](CC(C)C)C(=O)N[C@@H](C)C(=O)N[C@@H](CC(C)C)C(=O)N[C@@H](CC(C)C)C(=O)N[C@@H](CC(C)C)C(=O)N[C@@H](CC(C)C)C(=O)N[C@@H](C)C(=O)N[C@@H](C)C(=O)N[C@@H](Cc1c[nH]c2ccccc12)C(=O)N[C@H](C(=O)N[C@@H](C)C(=O)N[C@@H](CCCNC(=N)N)C(=O)N[C@@H](C)C(N)=O)[C@@H](C)O` [Peptide 1] ({FITC-Ahx}-MLPGLALLLLAAWTARA-NH2) came in with a Permeability of 10.40%.
